Source: patent US12691070B2, “Cationic lipids and preparation method thereof” (RiboX Therapeutics HK Limited, priority 2023, dated 2026)

Tests used:
[1] = LNP size and polydispersity index (PDI) by dynamic light scattering; assay type: physicochemical; conditions: for Size: in nm (unit assumed)
Summary of the method: (§1)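 Dynamic light scattering and zeta potential measurements were run on PBS-dialyzed LNPs, which had been formed by microfluidic mixing at 12 ml/min with final lipid at 1.5 mM to 6 mM. RNA content and percent encapsulation were determined by Ribogreen with and without Triton X-100.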

[2] = LNP zeta potential (Zetasizer); assay type: physicochemical
Summary of the method: as §1

[3] = RNA encapsulation efficacy by Quant-IT Ribogreen kit; assay type: physicochemical; conditions: for Encapsulation Efficiency %: LNP with cirRNA (SEQ ID NO: 1); for Encapsulation Efficiency: LNP with mRNA (SEQ ID NO: 2)
Summary of the method: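 Encapsulation efficacy came from Ribogreen fluorescence of LNPs compared with Triton X-100-lysed LNPs. The particles carried luciferase-encoding circular or linear RNA at an ionizable lipid:ribonucleotide ratio of 15 or 6.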

Hep G2 cells [4] = test: In vitro expression of firefly-luciferase, Hep G2; assay type: cell-based
Summary of the method: (§2)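 Transfection used 100 ng/mL luciferase-encoding RNA-LNPs; activity in lysates was determined at 72 h.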

RAW 264.7 cells [5] = test: In vitro expression of firefly-luciferase, RAW 264.7; assay type: cell-based
Summary of the method: as §2

Hep G2 cells [6] = test: In vitro toxicity (CellTiter-Glo cell viability), Hep G2; assay type: cell-based;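 note: percent of untreated cells luminescence signal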
Summary of the method: (§3)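 Toxicity of RNA-LNPs (1 μg/mL) is reported as cell viability, calculated from CellTiter-Glo luminescence measured at 72 hours after transfection.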

RAW 264.7 cells [7] = test: In vitro toxicity (CellTiter-Glo cell viability), RAW 264.7; assay type: cell-based;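 note: percent of untreated cells luminescence signal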
Summary of the method: as §3

BALB/C mice [8] = test: In vivo expression, whole-body luminescence (IVIS)
Method: 6-8 week old, female BALB/C mice were injected with 0.05 mg*kg-1 of RNA-LNPs encoding for firefly-luciferase by intravenous injection. At 6 hours post injection, animals were intraperitoneally injected with 15 mg/ml of Luciferin substrate and whole-body luminescence was determined by a bioluminescent in vivo imaging system (IVIS).

MCP-I = MCP-I cytokine elevation in serum; assay type: in vivo; conditions: cirRNA (SEQ ID NO: 1) LNPs, mice
Method: 6-8 week old, female BALB/C mice were injected with 0.5 mg*kg-1 of RNA LNPs by intravenous injection. At 2 and 24 hours post injection, animals were bled and sera concentrations of MCP-I were determined by an immunoassay (Luminex).

[9] = test system: Alanine Aminotransferase (ALT); test: Liver enzyme elevation in serum, ALT; assay type: in vivo; conditions: cirRNA (SEQ ID NO: 1) LNPs, BALB/C mice, intravenous 0.5 MPK
Method: (§4) 6-8 week old, female BALB/C mice were injected with 0.5 mg*kg-1 of RNA LNPs by intravenous injection. At 2 and 24 hours post injection, animals were bled and sera concentrations of Alanine Aminotransferase (ALT) and Aspartate Aminotransferase (AST) were determined by a blood chemistry analyzer.

[10] = test system: Aspartate Aminotransferase (AST); test: Liver enzyme elevation in serum, AST; assay type: in vivo; conditions: cirRNA (SEQ ID NO: 1) LNPs, BALB/C mice, intravenous 0.5 MPK
Method: as §4

BALB/C mice [11] = test: Local tolerance determination by footpad injection; assay type: in vivo; conditions: cirRNA (SEQ ID NO: 1) LNP, 0.175 mg*kg-1 subcutaneous into the footpad, 24 hours post minus prior
Method: 6-8 week old, female BALB/C mice were injected with 0.175 mg*kg-1 RNA LNPs by subcutaneous injection into the footpad. Prior to, and 24 hours post injections, injected footpad thickness was determined by a caliper.

[12] = cirRNA (SEQ ID NO: 1) LNPs, firefly-luciferase luminescence, Hep G2 cells
[13] = mRNA (SEQ ID NO: 2) LNP, 100 ng/mL, 72 hours post transfection, luciferase activity
[14] = cirRNA (SEQ ID NO: 1) LNPs, firefly-luciferase luminescence, RAW 264.7 cells
[15] = cirRNA (SEQ ID NO: 1) LNPs, Hep G2 cells
[16] = mRNA (SEQ ID NO: 2) LNP, 1 μg/mL, 72 hours post transfection
[17] = cirRNA (SEQ ID NO: 1) LNPs, RAW 264.7 cells
[18] = cirRNA (SEQ ID NO: 1) LNPs, BALB/C mice
[19] = mRNA (SEQ ID NO: 2) LNP, 0.05 mg*kg-1 intravenous, 6 hours post injection

SMILES	PDI ([1]; LNP with cirRNA (SEQ ID NO: 1))	Size ([1]; LNP with cirRNA (SEQ ID NO: 1))	PDI ([1]; LNP with mRNA (SEQ ID NO: 2))	Size ([1]; LNP with mRNA (SEQ ID NO: 2))	Zeta (mV) ([2]; LNP with cirRNA (SEQ ID NO: 1))	Zeta (mV) ([2]; LNP with mRNA (SEQ ID NO: 2))	Encapsulation Efficiency % [3]	Encapsulation Efficiency [3]	In vitro Expression HepG2 (Hep G2 cells [4]; [12])	In vitro Expression HepG2 (Hep G2 cells [4]; [13])	In vitro Expression RAW (RAW 264.7 cells [5]; [14])	In vitro Expression RAW (RAW 264.7 cells [5]; [13])	In vitro Viability HepG2 (Hep G2 cells [6]; [15])	In vitro Viability HepG2 (Hep G2 cells [6]; [16])	In vitro Viability RAW (RAW 264.7 cells [7]; [17])	In vitro Viability RAW (RAW 264.7 cells [7]; [16])	In vivo Expression (Whole Body) (BALB/C mice [8]; [18])	In vivo Expression (Whole Body) (BALB/C mice [8]; [19])	MCP-I in Sera 2 hours After 0.5 MPK Injection (MCP-I)	MCP-I in Sera 24 hours After 0.5 MPK Injection (MCP-I)	also measured
CCCCCCCCCCC(CCCCCCCC)COC(=O)CCCCCN(CCCCCC(=O)OCC(CCCCCCCC)CCCCCCCCCC)CCCOC(=O)NCCN1CCCCC1 (stereo not drawn) [Lipid 370]	0.08162	90.63	0.1494	112.8	0.1617 mV	0.9875 mV	97%	93.87%	2.65E+07	6.38E+07	1.98E+06	3.26E+07	93%	94%	96%	107%	3.68E+08	3.37E+08	4872.33 pg/mL	1652.33 pg/mL	ALT in Sera (IU/L) 2 hours After 0.5 MPK Injection [9]: 102.00 IU/L; ALT in Sera (IU/L) 24 hours After 0.5 MPK Injection [9]: 123.00 IU/L; AST in Sera (IU/L) 2 hours After 0.5 MPK Injection [10]: 276.33 IU/L; AST in Sera (IU/L) 24 hours After 0.5 MPK Injection [10]: 413.33 IU/L; Footpad Thickness (24 h−0 h, mm) (BALB/C mice [11]): 0.50 mm
CCCCCCCCC(CCCCCC)C(=O)OCCCCCCCCN(CCCCCCCCOC(=O)C(CCCCCC)CCCCCCCC)CCCOC(=O)NCCN(C)C (stereo not drawn) [Lipid 374]	0.1683	105.2	0.06656	88.86	3.631 mV	3.895 mV	96%	85.44%	1.89E+07	3.70E+07	2.34E+06	5.38E+05	70%	57%	84%	84%	1.53E+08	4.07E+09	3843.00 pg/mL	1289.00 pg/mL	ALT in Sera (IU/L) 2 hours After 0.5 MPK Injection [9]: 136.67 IU/L; ALT in Sera (IU/L) 24 hours After 0.5 MPK Injection [9]: 152.67 IU/L; AST in Sera (IU/L) 2 hours After 0.5 MPK Injection [10]: 435.67 IU/L; AST in Sera (IU/L) 24 hours After 0.5 MPK Injection [10]: 431.67 IU/L; Footpad Thickness (24 h−0 h, mm) (BALB/C mice [11]): 0.63 mm
CCCCCCCCC(CCCCCC)C(=O)OCCCCCCCCN(CCCCCCCCOC(=O)C(CCCCCC)CCCCCCCC)CCCOC(=O)NCc1ncc[nH]1 (stereo not drawn) [Lipid 375]	0.2011	92.54	0.008186	75.13	−1.253 mV	−4.713 mV	89%	88.53%	1.10E+06	4.36E+05	7.06E+05	2.13E+05	100%	100%	90%	78%	3.46E+08	8.41E+08	2740.67 pg/mL	396.29 pg/mL	ALT in Sera (IU/L) 2 hours After 0.5 MPK Injection [9]: 174.67 IU/L; ALT in Sera (IU/L) 24 hours After 0.5 MPK Injection [9]: 120.33 IU/L; AST in Sera (IU/L) 2 hours After 0.5 MPK Injection [10]: 292.00 IU/L; AST in Sera (IU/L) 24 hours After 0.5 MPK Injection [10]: 251.67 IU/L; Footpad Thickness (24 h−0 h, mm) (BALB/C mice [11]): 0.27 mm
CCCCCCCCC(CCCCCC)C(=O)OCCCCCCCCN(CCCCCCCCOC(=O)C(CCCCCC)CCCCCCCC)CCCOC(=O)NCCCN(CC)CC (stereo not drawn) [Lipid 376]	0.1398	102	0.07745	87.9	9.074 mV	5.722 mV	97%	90.28%	4.84E+06	5.32E+05	1.00E+06	8.33E+04	48%	53%	87%	100%	1.16E+08	1.56E+09	6397.67 pg/mL	561.62 pg/mL	ALT in Sera (IU/L) 2 hours After 0.5 MPK Injection [9]: 117.33 IU/L; ALT in Sera (IU/L) 24 hours After 0.5 MPK Injection [9]: 141.33 IU/L; AST in Sera (IU/L) 2 hours After 0.5 MPK Injection [10]: 434.67 IU/L; AST in Sera (IU/L) 24 hours After 0.5 MPK Injection [10]: 293.67 IU/L; Footpad Thickness (24 h−0 h, mm) (BALB/C mice [11]): 0.89 mm
CCCCCCCCC(CCCCCC)C(=O)OCCCCCCCCN(CCCCCCCCOC(=O)C(CCCCCC)CCCCCCCC)CCCOC(=O)NCCN1CCCCC1 (stereo not drawn) [Lipid 380]	0.1668	112.8	0.02507	88.83	−2.171 mV	−2.552 mV	92%	80.50%	2.95E+07	7.30E+07	2.22E+06	1.45E+06	89%	94%	86%	106%	4.50E+08	4.00E+08	1168.73 pg/mL	1025.26 pg/mL	ALT in Sera (IU/L) 2 hours After 0.5 MPK Injection [9]: 89.33 IU/L; ALT in Sera (IU/L) 24 hours After 0.5 MPK Injection [9]: 122.00 IU/L; AST in Sera (IU/L) 2 hours After 0.5 MPK Injection [10]: 196.33 IU/L; AST in Sera (IU/L) 24 hours After 0.5 MPK Injection [10]: 480.67 IU/L; Footpad Thickness (24 h−0 h, mm) (BALB/C mice [11]): 0.25 mm
CCCCCCCCC(CCCCCC)C(=O)OCCCCCCCCN(CCCCCCCCOC(=O)C(CCCCCC)CCCCCCCC)CCCOC(=O)NCCN1CCCCCC1 (stereo not drawn) [Lipid 383]	0.1744	90.41	0.1802	94.23	−0.4606 mV	−13.05 mV	95%	86.72%	6.03E+06	3.97E+01	2.93E+06	2.14E+06	97%	94%	89%	94%	4.66E+08	2.01E+08	5759.00 pg/mL	2458.33 pg/mL	ALT in Sera (IU/L) 2 hours After 0.5 MPK Injection [9]: 99.33 IU/L; ALT in Sera (IU/L) 24 hours After 0.5 MPK Injection [9]: 116.00 IU/L; AST in Sera (IU/L) 2 hours After 0.5 MPK Injection [10]: 245.00 IU/L; AST in Sera (IU/L) 24 hours After 0.5 MPK Injection [10]: 354.67 IU/L; Footpad Thickness (24 h−0 h, mm) (BALB/C mice [11]): 0.60 mm
